# Laboratory results: patent publication US20110052725A1, “THERAPEUTIC AGENT FOR INFECTIOUS SKIN AND MUCOSAL DISEASE” (priority 2007, published 2011)
# Marks after values point to notes of the source that are not given here.
# Legend:
# [1] = tested on: herpesvirus type 1 (HSV1 kos); test: Antiviral activity against herpesvirus type 1 (TCID50, CRFK cell); format: cell-based
# Protocol: An antiviral activity against herpesvirus type 1 (HSV-1, Herpes simplex virus type 1) (virus which causes mainly herpes labialis, and also causes herpetic stomatitis, herpetic keratitis and herpes simplex encephalitis) was measured. The method will be described below.
# Five-hundred ml of a culture solution of virus (herpesvirus type 1 kos) which had been cultured with CRFK cell (feline kidney cell) was centrifuged at 3,000 rpm for 3 hours, and to the sediment was added 4 ml of distilled water to thereby prepare a viral suspension. The viral suspension was sterilized by filtration using a 0.45 μm membrane filter, and cryopreserved at −80° C. until its usage.
# (§1) Each of the agents was diluted with sterile distilled water, to thereby prepare a dilution series of 1,250 ppm, 125 ppm, 12.5 ppm, 1.25 ppm and 0.125 ppm.
# (§2) In order to neutralize chlorine dioxide in the agent, a 0.0025M sodium thiosulfate solution was prepared using Eagle MEM, and sterilized by filtration using a 0.22 μm membrane filter.
# (§3) To each of the various concentrations of the agents (240 μl) was added virus (60 μl) and stirred, to thereby sensitize the virus with the agent, for 15, 30, 60, 120 or 180 seconds. Forty μl of virus from each reaction liquid was added to a 0.0025M sodium thiosulfate solution (360 μl), to thereby neutralize chlorine dioxide. As a virus control, one diluted with distilled water, instead of the agent, was used.
# (§4) Each of the agent-treated virus liquid and the control virus liquid diluted with distilled water was neutralized with a 0.0025M sodium thiosulfate solution, and then neutralized virus (100 μl) was diluted with Eagle MEM (900 μl), to obtain a 10-fold dilution series of the treated virus.
# (§5) CRFK cell (50 μl/well) was incubated in a 96-well microplate for 3 days, and the diluted virus was inoculated therein (50 μl/well, 4 well/dilution). Each cell was cultured in a CO2 incubator at 37° C. for 5 days, and CPE was observed. TCID50 was calculated based on the above-mentioned equation 1 (Kerber's formula).
# [2] = tested on: herpesvirus type 2 (HSV2 UF-strain); test: Antiviral activity against herpesvirus type 2 (TCID50); format: cell-based
# Protocol: as §1, §2, §3, §4, §5
# The antiviral activity against herpesvirus type 2 (HSV-2, Herpes simplex virus type 2) (virus which causes mainly genital herpes, neonatal herpes, herpetic meningitis and herpetic myelitis) was measured. Substantially the same test as in Example 10 was performed, except that the herpesvirus type 2 (standard strain; UF strain) was used instead of the herpesvirus type 1.
smiles,measurement,setting,value
OCl [Sodium hypochlorite],Reduction of viral infectivity titer,[1]; 1 ppm or less,apparent reduction of the infectivity titer was not observed
same,Reduction of viral infectivity titer,"[1]; 10 ppm, 180 seconds",≤ 1 log
same,Reduction of viral infectivity titer,"[1]; discussion, compared with chlorine dioxide 10 ppm for 15 seconds",apparent reduction of the infectivity titer was not observed
same,Viral infectivity titer TCID50,"[2]; 0.1 ppm, agent sensitized time 0 second",4.25 TCID50/50 μL unit (10^n)
same,Viral infectivity titer TCID50,"[2]; 0.1 ppm, agent sensitized time 30 second",4.25 TCID50/50 μL unit (10^n)
same,Viral infectivity titer TCID50,"[2]; 0.1 ppm, agent sensitized time 60 second",4.25 TCID50/50 μL unit (10^n)
same,Viral infectivity titer TCID50,"[2]; 0.1 ppm, agent sensitized time 120 second",4.25 TCID50/50 μL unit (10^n)
same,Viral infectivity titer TCID50,"[2]; 1 ppm, agent sensitized time 0 second",4.25 TCID50/50 μL unit (10^n)
same,Viral infectivity titer TCID50,"[2]; 1 ppm, agent sensitized time 30 second",4 TCID50/50 μL unit (10^n)
same,Viral infectivity titer TCID50,"[2]; 1 ppm, agent sensitized time 60 second",3.75 TCID50/50 μL unit (10^n)
same,Viral infectivity titer TCID50,"[2]; 1 ppm, agent sensitized time 120 second",3.75 TCID50/50 μL unit (10^n)
same,Viral infectivity titer TCID50,"[2]; 10 ppm, agent sensitized time 0 second",4.25 TCID50/50 μL unit (10^n)
same,Viral infectivity titer TCID50,"[2]; 10 ppm, agent sensitized time 30 second",0 TCID50/50 μL unit (10^n)
same,Viral infectivity titer TCID50,"[2]; 10 ppm, agent sensitized time 60 second",0 TCID50/50 μL unit (10^n)
same,Viral infectivity titer TCID50,"[2]; 10 ppm, agent sensitized time 120 second",0 TCID50/50 μL unit (10^n)
